Measured values reported in patent US5776769A, “Cell-type specific methods and devices for the low temperature preservation of the cells of an animal species” (Methodist Hospital of Indiana, priority 1995, dated 1998).

Legend:
human sperm [1] = experiment: Sperm membrane integrity (dual staining, flow cytometry) after glycerol addition and removal; assay type: cell-based; details: in 1M glycerol or after addition and removal of 1M glycerol by the different procedures
Description: One preferred procedure to assess cell viability utilizes dual flourescent staining and flow cytometric analysis as disclosed by Garner in Assessment of Spermatozoal Function Using Dual Fluorescent Staining and Flow Cytometric Analysis, Biol. Reprod. 34, 127-138, 1986, which is hereby incorporated into this specification by reference. Propidium iodide (PI) is a bright red, nucleic acid-specific fluorophore available from the Sigma Chemical Co. PI permeates poorly into sperm cells with intact plasma membranes, however, it readily diffuses into sperm having damaged membranes and stains the DNA red. […]
Plasma membrane integrity was analyzed by placing five μl of CFDA (suspended in 0.25 mg/ml of DMSO) and 5 μl of PI (suspended in 1 mg/ml H2 O) solutions into 0.5 ml of a particular sperm suspension. […] A total of 1×10^5 spermatozoa per treatment were analyzed using a FACSTAR PLUS™ flow cytometer.
TL-HEPES medium with 2M glycerol was either one-step or stepwise added to an equal volume of the isotonic sperm suspension to achieve a final 1M glycerol concentration at 22° C. […] Sperm motility before, during, and after the different glycerol addition and removal procedures was measured by CASA. The membrane integrity of the sperm was determined by the dual staining technique and flow cytometry.

human spermatozoa = details: cited from earlier work
human sperm cells = experiment: Glycerol removal with porous-membrane diffusion device; assay type: cell-based
Description: A cell suspension with cryoprotectants is placed in the chamber (region 2) with an internal space/thickness of L. Two walls of the chamber are the porous membranes (regions 1 and 3) with special characteristics (e.g. membrane thickness: 150 μm, pore size: 0.22 to 0.65 μm in diameter, pore area: 70% of the total membrane surface area). For removing CPAs, isotonic cell culture medium without CPAs are continuously pumped and run through compartments (4 and 5) to quickly remove CPAs diffusing from the chamber (region 2) through the porous membrane. Meanwhile, the isotonic medium diffuses into the chamber to dilute the CPA concentration in the cell suspension. Because the porous membrane used is a nonselective membrane (pore size […]), CPAs and other solutes and solvents (water) diffuse freely across the […] with a constant cell suspension volume in the chamber. The pore size of the porous membrane, the thickness of the cell chamber, the diffusibility of CPA in the solution, the permeability coefficients of the cell membrane to water and CPA are control factors used in the design of the system. Basic assumptions and mathematical formulation describing the CPA diffusion across the porous membrane and the change of CPA concentration distribution in the chamber (i.e., the extracellular environment) are as follows:
A corresponding computer program using a finite difference method to calculate the above equations is used to simulate the mass transfer process in the system. The values of f, L2, Cf, Ci, L1, D1, D2 and hD can be used as control factors or adjustable parameters in the computer simulation. […] Calculated kinetic changes of glycerol concentration (initial 1M) at the chamber position A (center, see FIG. 19) and B (internal surface of porous membrane, see FIG. 19) are shown in FIG. 21, and the corresponding cell volume changes are calculated and predicted to be below the cell tolerance limit (1.1 times isotonic sperm volume), as shown in FIG. 22.

human sperm [2] = experiment: Sperm motility (CASA) after glycerol addition and removal procedures; assay type: cell-based; details: for sperm motility loss: final 1M glycerol, 22° C.
Description: Sperm motility was measured by computer assisted semen analysis (CASA) using CELLSOFT™, version 3.2/C. CASA was performed before, during, and after the anisosmotic exposures of the sperm samples. All experiments were conducted at 22° C.
TL-HEPES medium with 2M glycerol was either one-step or stepwise added to an equal volume of the isotonic sperm suspension to achieve a final 1M glycerol concentration at 22° C. Glycerol in the sperm was removed by dilution either by a one-step or stepwise addition of the TL-HEPES medium with or without an osmotic buffer (sucrose) placed into the cell suspension. The detailed procedures for the glycerol addition and removal are described in Tables 2-5. Sperm motility before, during, and after the different glycerol addition and removal procedures was measured by CASA. The membrane integrity of the sperm was determined by the dual staining technique and flow cytometry.
The time interval between two steps was approximately 1-2 minutes. The volume of solution added in each step was calculated using Equations 5 or 6.
The final 90 μl of sperm suspension were further diluted by adding 180 μl of TALP solution for the CASA analysis. The time interval between two steps is approximately 1-2 minutes. The volume of diluent added in each step was calculated using Equations 7 or 8.
Add 2000 μl of isotonic solution directly to 100 μl of cell suspension with 1M glycerol.
(1) Add 2000 μl of sucrose buffer medium

Structure (SMILES)	membrane integrity of the human sperm (human sperm [1])	Glycerol permeability coefficient (PCPA) (human spermatozoa; 22° C., human spermatozoa)	time for removal of over 95% of 1M glycerol (human sperm cells)	cell clumping, loss in motility or membrane integrity, or curling of sperm tails (human sperm cells; 1M glycerol removal within 10 minutes)	glycerol removed from the human sperm cells (human sperm cells; 1M glycerol, within 10 minutes)	sperm that maintained motility (human sperm [2]; eight-step FMS removal of 1M glycerol)	sperm that lost motility (human sperm [2]; eight-step FVS removal of 1M glycerol)	sperm motility loss (human sperm [2]; four-step FMS addition)	sperm motility loss (human sperm [2]; one step addition)	motile sperm that kept motility (human sperm [2]; one-step removal of 1M glycerol)	motility loss (human sperm [2]; two-step removal of 1M glycerol using sucrose as non-permeating buffer (600 mOsm))	Water permeability coefficient (Lp) (human spermatozoa; not told)
OCC(O)CO [glycerol]	appeared to maintain membrane integrity under all experimental conditions	0.0011 cm/min	≤ 10 min	without significant cell clumping, loss in motility or membrane integrity, or curling of sperm tails	over 95%	over 92%	Thirty-five percent	less than 8%	approximately 20%	Less than 30%	~45%	–
O [Water, water]	–	–	–	–	–	–	–	–	–	–	–	2.16 um/minutes/atm
